{"source": "patent US8901138B2", "about": "“Sulfoximine substituted quinazolines for pharmaceutical compositions” (Boehringer Ingelheim International GmbH, priority 2012, dated 2014)"}
{"target": "MNK1a (Homo sapiens, UniProt Q9BUB5)", "sequence (Q9BUB5 1-424 isoform Q9BUB5-2)": "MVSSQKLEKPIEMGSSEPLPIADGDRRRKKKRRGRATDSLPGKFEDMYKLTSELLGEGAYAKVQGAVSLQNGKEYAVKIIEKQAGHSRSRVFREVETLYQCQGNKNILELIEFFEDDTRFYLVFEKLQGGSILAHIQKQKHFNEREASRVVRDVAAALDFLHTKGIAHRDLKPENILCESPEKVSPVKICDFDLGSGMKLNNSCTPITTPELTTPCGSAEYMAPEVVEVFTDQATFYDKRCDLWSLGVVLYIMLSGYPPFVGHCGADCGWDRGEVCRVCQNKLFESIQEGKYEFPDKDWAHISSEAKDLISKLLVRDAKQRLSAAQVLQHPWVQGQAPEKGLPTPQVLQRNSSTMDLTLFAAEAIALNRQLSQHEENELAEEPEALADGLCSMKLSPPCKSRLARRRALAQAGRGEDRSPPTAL", "assay": "MNK1 in vitro kinase assay (assay 2), Z'-LYTE", "type": "biochemical", "conditions": "compound concentration of 1 μM", "from_the_text": "B. MNK1 In Vitro Kinase Assay (Assay 2)\nMNK1 Data can be obtained from the MNK1 Z′-LYTE® assay. The MNK1 Z′-LYTE® screening protocol and assay conditions are also described on www.invitrogen.com.\nThe assay is described as follows:\nThe Z′-LYTE® biochemical assay employs a fluorescence-based, coupled-enzyme format and is based on the differential sensitivity of phosphorylated and non-phosphorylated peptides to proteolytic cleavage. The peptide substrate is labeled with two fluorophores—one at each end—that make up a FRET pair.\nIn the primary reaction, the kinase transfers the gamma-phosphate of ATP to a single tyrosine, serine or threonine residue in a synthetic FRET-peptide. In the secondary reaction, a site-specific protease recognizes and cleaves non-phosphorylated FRET-peptides. Phosphorylation of FRET-peptides suppresses cleavage by the Development Reagent. Cleavage disrupts FRET between the donor (i.e., coumarin) and acceptor (i.e., fluorescein) fluorophores on the FRET-peptide, whereas uncleaved, phosphorylated FRET-peptides maintain FRET. A ratiometric method, which calculates the ratio (the Emission Ratio) of donor emission to acceptor emission after excitation of the donor fluorophore at 400 nm, is used to quantitate reaction progress, as shown in the equation below. Emission Ratio=Coumarin Emission(445 nm)/Fluorescein Emission(520 nm)\nASSAY SETUP: The inhibition of kinase activity of MNK1a was assessed using pre-activated GST-MNK1a. The 2×MKNK1 (MNK1) mixture is prepared in 50 mM HEPES pH 7.5, 0.01% BRIJ-35, 10 mM MgCl2, 4 mM MnCl2, 1 mM EGTA, 2 mM DTT. The final 10 μL Kinase Reaction consists of 13.5-54 ng MKNK1 (MNK1) and 2 μM Ser/Thr 07 in 50 mM HEPES pH 7.5, 0.01% BRIJ-35, 10 mM MgCl2, 2 mM MnCl2, 1 mM EGTA, 1 mM DTT. After the 1 hour Kinase Reaction incubation, 5 μL of a 1:32768 dilution of Development Reagent A is added.\nThe Test Compounds are screened in 1% DMSO (final) in the well.\nAll Peptide/Kinase Mixtures are diluted to a 2× working concentration in the MNK1 Kinase Buffer.\nAll ATP Solutions are diluted to a 4× working concentration in Kinase Buffer (50 mM HEPES pH 7.5, 0.01% BRIJ-35, 10 mM MgCl2, 1 mM EGTA).\nDevelopment Reagent Solution:\nThe Development Reagent is diluted in Development Buffer\nBar-coded Corning, low volume NBS, 384-well plate (Corning Cat. #3676)\n1. 2.5 μL-4× Test Compound\n2. 5 μL-2× Peptide/Kinase Mixture\n5. 60-minute Kinase Reaction incubation at room temperature\n6. 5 μL-Development Reagent Solution\n8. 60-minute Development Reaction incubation at room temperature\n9. Read on fluorescence plate reader and analyze the data\nThe following equations are used for each set of data points: […]\nCorrection for Background Fluorescence: FSample−FITCFl Ctl\nEmission Ratio (using values corrected for background fluorescence):Coumarin\nEmission (445 nm)/Fluorescein Emission (520 nm)\n% Phosphorylation (% Phos): 1−((Emission Ratio×F100%)−C100%)/((C0%−C100%)+[Emission Ratio×(F100%−F0%)])*100 % Inhibition: 1−(% PhosSample/% Phos0% Inhibition Ctl)*100 FI=Fluorescence Intensity C100%=Average Coumarin emission signal of the 100% Phos. Control C0%=Average Coumarin emission signal of the 0% Phos. Control F100%=Average Fluorescein emission signal of the 100% Phos. Control F0%=Average Fluorescein emission signal of the 0% Phos. Control Graphing Software\nSelectScreen® Kinase Profiling Service uses XLfit from IDBS. The dose response curve is curve fit to model number 205 (sigmoidal dose-response model).", "units": {"inhibition at 1 µM": "%"}}
{"compound": "Cc1cc(N=S(C)(C)=O)cc2ncnc(Nc3ccc(Br)cc3OC3CCOCC3)c12", "note": "[Example 1.10]", "inhibition at 1 µM": 80}
{"compound": "Cc1cc(N=S(C)(C)=O)cc2ncnc(Nc3ccc(F)cc3O[C@H]3CO[C@H]4[C@@H]3OC[C@H]4O)c12", "note": "[Example 2.19]", "inhibition at 1 µM": 47}
{"compound": "Cc1cc(N=S2(=O)CCN(C(=O)OC(C)(C)C)CC2)cc2ncnc(Nc3ccc(F)cc3O[C@H]3CO[C@H]4[C@@H]3OC[C@H]4O)c12", "note": "[Example 2.21]", "inhibition at 1 µM": 81}
{"compound": "CC(C)(C)OC(=O)N1CC[C@@H](Oc2cc(F)ccc2Nc2ncnc3cc(N=S(C)(C)=O)cc(F)c23)C1", "note": "[Example 2.32]", "inhibition at 1 µM": 50}
{"compound": "CO[C@H]1CC[C@H](Oc2cc(F)ccc2Nc2ncnc3cc(N=S(C)(C)=O)cc(F)c23)CC1", "note": "[Example 2.46]", "inhibition at 1 µM": 88}
{"compound": "Cc1cc(N=S(C)(C)=O)cc2ncnc(Nc3ccc(F)cc3O[C@@H]3CCN(C(=O)OC(C)(C)C)C3)c12", "note": "[Example 2.52]", "inhibition at 1 µM": 60}
{"compound": "COCCS(C)(=O)=Nc1cc(C)c2c(Nc3ccc(F)cc3O[C@H]3CCOC3)ncnc2c1", "note": "(some centres unmarked) [Example 2.63]", "inhibition at 1 µM": 85}
{"compound": "Cc1cc(N=S2(=O)CCCC2)cc2ncnc(Nc3ccc(F)cc3O[C@H]3CCOC3)c12", "note": "[Example 2.85]", "inhibition at 1 µM": 100}
{"compound": "CCS(=O)(CC)=Nc1cc(C)c2c(Nc3ccc(F)cc3O[C@@H]3CO[C@H]4[C@@H]3OC[C@H]4O)ncnc2c1", "note": "[Example 2.86]", "inhibition at 1 µM": 89}
{"compound": "Cc1cc(N=S2(=O)CCCC2)cc2ncnc(Nc3ccc(F)cc3O[C@@H]3CCNC3)c12", "note": "[Example 3.4]", "inhibition at 1 µM": 92}
{"compound": "Cc1cc(N=S(C)(C)=O)cc2ncnc(Nc3ccc(F)cc3OC3CCOC3=O)c12", "note": "(centres unmarked) [Example 4.13]", "inhibition at 1 µM": 75}
{"compound": "Cc1cc(N=S(C)(C)=O)cc2ncnc(Nc3cccnc3O[C@@H]3CCCN(CC(C)(C)O)C3)c12", "note": "[Example 6.5]", "inhibition at 1 µM": 91}
{"compound": "CC(C)(O)CN1CCC[C@@H](Oc2ncccc2Nc2ncnc3cc(N=S(C)(C)=O)cc(F)c23)C1", "note": "[Example 6.19]", "inhibition at 1 µM": 70}
{"compound": "COC(=O)N1CCS(=O)(=Nc2cc(C)c3c(Nc4ccc(F)cc4O[C@H]4CC[C@H](OC)CC4)ncnc3c2)CC1", "note": "[Example 7.3]", "inhibition at 1 µM": 72}
